{
  "source": "patent EP4310093A1",
  "about": "“AMINO ACID DERIVATIVE, PREPARATION METHOD THEREFOR, AND PHARMACEUTICAL COMPOSITION FOR TREATING HEPATITIS, COMPRISING SAME” (priority 2021, dated 2022)",
  "key": {"HBV [1]": {"system": "HBV", "assay": "Inhibition of intracellular HBV virus invasion, Southern blot analysis", "assay_type": "cell-based", "method": "(§1) In order to evaluate the ability to inhibit intracellular HBV virus entry (invasion), Enzyme-linked immunosorbent assay (ELISA) analysis to measure HBeAg, which is associated with high infectivity as an antigen in the HBV virus core portion, and Southern blot analysis to measure DNA of HBV were performed.\n(§2) Specifically, the HepG2-NTCP cell line was cultured on a 6-well plate, incubation was performed overnight, HBV inhibitors were treated at a concentration of 20 µM, and the positive control Myrcludex-B (MyrB) was treated at a concentration of 200 nM, followed by culture for 24 hours. After HBV infection into the cells to make HBV 3000 genome equivalent per ml/cell (Geq/cell), the cell culture medium was replaced (medium changing, MC) a day after the viral infection to remove the virus unattached to cell membranes. In order to measure an amount of virus that entered the cell, medium changing (MC) was performed once more 4 days after viral infection. 2 days after replacement, HBeAg ELISA analysis was performed using a supernatant, and Southern blot analysis was performed with cell pellets.\nFor the cell pellet obtained by the method of Experimental Example 4-1, Southern blot analysis for measurement of […] DNA was performed using Example 1 (LCA-Ile), Example 44 (LCA-Val), Example 52 (LCA-Tyr), Example 51 (LCA-Ser), Example 55 (LCA-Glu), Example 2 (UDCA-Ile), Example 3 (UDCA-Val), Example 25 (LCA-Val-Trp), Example 10 (DCA-Ile), Comparative Example 1 (LCA), and Comparative Example 2 (UDCA).\nFirst, the cell pellets were pipetted with 100 µl of HEPES lysis buffer (10 mM HEPES, 100 mM NaCl, 1 mM EDTA, 1% NP-40), placed on ice for 20 minutes, and then centrifuged with a centrifuge under the conditions at 4°C and 13000 rpm. After transferring the supernatant only to the new microtube, 4.5 µl of nuclease buffer I (10 mM CaCl2, 12 mM MgCl2, DNase 10 units) was added to carry out a reaction at 37°C for 2 hours, and 40 µl of 26% PEG solution was added, followed by a reaction on ice for 1 hour. After centrifuging with the centrifuge at 4°C and 13000 rpm for 30 minutes, and the supernatant was removed cleanly. After releasing the pellets with 100 µl of nuclease buffer II (10 mM Tris, 8 mM CaCl2, 6mM MgCl2), 287.5 µl of 0.5% SDS buffer (25 mM Tris, 10 mM EDTA, 0.5% SDS, 100 mM NaCl) was added, and 12.5 µl of 20 mg/ml proteinase K was added, followed by a reaction at 37°C for 2 hours. 400 µl of phenol-chloroform-isoamyl alcohol was added, centrifugation was performed at room temperature at 13000 rpm after voltexing, the supernatant was transferred to a new tube, 40 µl of 3 M NaOAc was added, and 800 µl of 100% ethanol was added for inverting, followed by a reaction overnight at -20°C. After performing centrifugation at 4°C and 13000 rpm for 30 minutes, 800 µl of 70% ethanol was added and mixed to the pellet obtained by removing the supernatant, centrifugation was performed at 4°C and 13000 rpm for 10 minutes, and then the supernatant was discarded. The ethanol was dried for 5 minutes to leave only the HBV DNA pellets, and then the pellets were dissolved again in 15 µl of TE buffer (10 mM Tris, 1 mM EDTA). HBV DNA samples were loaded in 1% agarose gel, and electrophoresis was performed. It was then immersed in denature buffer (0.25 N NaOH, 1 M NaCl) for 30 minutes to denature dsDNA of HBV into ssDNA. The DNA in the gel was transferred to a Nylon membrane using a transfer buffer (0.4 M NaOH), the membrane was soaked with a 2X SSC buffer (sigma, cat# 85639) for neutralization, followed by drying in air. The membrane was immersed in a church buffer (10% BSA, 0.5 M EDTA, 1 M NaPi, 20% SDS), and the radioisotopes were hybridized using a Mega prime kit (GE healthcare, RPN1607). After washing three times with washing buffer (2X SSC, 0.1% SDS), measurement was performed using radioisotope measurement equipment, and a relative replication rate (%) to the negative control group (Mock) was calculated and shown."}, "Jurkat cell line": {"system": "Jurkat cell line", "assay": "Cytotoxicity, WST-1 cell viability", "assay_type": "cell-based, human", "settings": "0.2 µM ~ 50 µM, 24 and 48 hours", "method": "For Example 1 (LCA-Ile), Example 44 (LCA-Val), Example 2 (UDCA-Ile), and Example 3 (UDCA-Val), cytotoxicity was evaluated in the Jurkat cell line, a human T lymphocyte-derived cell line. Jurkat cell lines were seeded at a density of 5 × 10^4 on a 96 well plate for overnight incubation, and each compound was treated at a concentration of 0.2 µM ~ 50 µM for 24 or 48 hours. WST-1, a reagent for measuring cell viability, was loaded at 10 µl/well, and absorbance was measured at 440 nm using a microplate reader 2 hours later. The mean value of negative control (NC) group treated with only DMSO was calculated as 1 and the cytotoxicity for the remaining experimental group was evaluated."}, "HBV [2]": {"system": "HBV", "assay": "Inhibition of intracellular HBV virus invasion, HBeAg ELISA analysis", "assay_type": "cell-based", "settings": "20 µM, HepG2-NTCP cell line, HBV 3000 Geq/cell, O.D. at 450 nm", "method": "as §1, §2\nHBeAg ELISA analysis was performed using an HBeAg ELISA kit (sanbio, Wantai HBeAg ELISA, cat#WB-2496) for the supernatant obtained by the method in Experimental Example 4-1.\nFirst, a negative control group (Mock), positive control group (MyrB), and samples according to the present disclosure were loaded, by 50 µl each to be triplicate, onto a 96-well plate coated with capture Ab. In this case, Example 1 (LCA-ILE), Example 44 (LCA-Val), Example 52 (LCA-Tyr), Example 51 (LCA-Ser), Example 55 (LCA-Glu), Example 2 (UDCA-Ile), Example 3 (UDCA-Val), Example 25 (LCA-Val-Trp), Example 10 (DCA-Ile), Comparative Example 1 (LCA), and Comparative Example 2 (UDCA) were used as the sample.\nThe HRP-conjugated detection antibody was loaded into each well by 50 µl, followed by a reaction at 37°C for 30 minutes. Washing buffer (1X PBS, 0.5% Tween20) was added by 200 µl, and washing was performed 5 times. 50 µl of chromogen solution A and 50 µl of chromogen solution B were added to each well, and a reaction was carried out in the darkness at 37°C for 15 minutes. The stop solution was added to each well by 50 µl each to stop the reaction, and the amount of HBeAg was measured by measuring the absorbance (optical density, O.D.) level in the 450 nm wavelength band."}},
  "data": [
    {"smiles": "CC[C@@H](C)[C@H](NC(=O)CC[C@@H](C)[C@H]1CC[C@H]2[C@@H]3CC[C@@H]4C[C@H](O)CC[C@]4(C)[C@H]3CC[C@]12C)C(=O)O", "note": "[Example 1, (2S,3R)-2-((R)-4-((3R,5R,8R,9S,10S,13R,14S,17R)-3-hydroxy-10,13-dimethyl-hexadecahydro-1H-cyclopenta[a]phenanthren-17-yl)pentanamido)-3-methylpentanoic acid]", "values": [
      {"measurement": "amount of HBeAg DNA detected compared to the negative control group (Mock)", "setting": "HBV [1]; 20 µM, HepG2-NTCP cell line, HBV 3000 Geq/cell", "value": "relatively less amount"},
      {"measurement": "activity at 20 µM", "setting": "HBV [1]; Hepatitis B virus, read-out: relative replication rate of quantified HBeAg DNA to the negative control group (Mock), 20 µM, HepG2-NTCP cell line, HBV 3000 Geq/cell", "value": "< 80", "unit": "%"},
      {"measurement": "cytotoxicity", "setting": "Jurkat cell line", "value": "barely observed"},
      {"measurement": "HBeAg absorbance level compared with Comparative Example 1 (LCA) and Comparative Example 2 (UDCA)", "setting": "HBV [2]", "value": "lower"},
      {"measurement": "HBeAg absorbance level compared with the negative control group (Mock)", "setting": "HBV [2]", "value": "relatively lower"}
    ]}
  ]
}
